Source: patent US20100292255A1, “Therapeutic Compounds and Their Use in Treating Diseases and Disorders” (Myriad Pharmaceuticals, Inc., priority 2007, published 2010)

Tested on: T1, purified human Hsp90
T1 construct: purified human Hsp90 (Stressgen, SPP-770)
Assay: Hsp90 binding assay: displacement of BODIPY-labeled geldanamycin measured by fluorescence polarization
Conditions: 5 μM compound; BODIPY-GM 10 nM, Hsp90 30 nM, overnight at room temperature
Method: Binding of the Example Compounds to purified Hsp90 was assayed by measuring the displacement of BODIPY-labeled geldanamycin (BODIPY-GM) from purified human Hsp90, using a fluorescence polarization assay adapted from Kim et al. (J. Biomolec. Screening, 9(5):375-381 (2004)). Compound dilutions (in 100% DMSO) were added to black-bottom 96-well plates (Greiner Bio-One, Monroe, N.C.) in 2% DMSO final, and equal volumes of BODIPY-GM (10 nM final) and purified human Hsp90 (Stressgen, SPP-770; 30 nM final) (Assay Designs, Ann Arbor, Mich.) in assay buffer (20 mM HEPES-KOH pH 7.3, 50 mM KCl, 5 mM MgCl2, 20 mM Na2MoO4, 0.01% NP-40, 0.1 mg/mL bovine gamma globulin [P2045; Invitrogen, Carlsbad, Calif.], 2 mM DTT) were added sequentially to yield a final volume of 50 microliters. Plates were incubated overnight at room temperature. Parallel and perpendicular fluorescence measurements were read (Analyst AD plate reader; LJL BioSystems, Middletown, Conn.) with excitation/emission wavelengths of 485/530 nm. Background fluorescence (buffer only) was subtracted, and fluorescence polarization (FP) values, expressed in mP units, were calculated from parallel and perpendicular fluorescence readings as follows:
FP=(parallel−perpendicular)/(parallel+perpendicular)*1000.
Percent inhibition was calculated by normalizing the FP values to those obtained in parallel reactions containing DMSO and subtracting these normalized values from 100%. Intrinsic compound fluorescence was independently monitored, and FP data points confounded by compound fluorescence were excluded from the analysis.

GM displacement from purified Hsp90 measured by FP Inhibition by 5 μM compd. (%) | Compound
24.0% | N#Cc1cc2c(cc1Sc1nc3c(N)ncn(CCC4CCN(C=O)CC4)c-3n1)CCC2=O [compound 2, 6-({6-amino-3-[2-(1-formylpiperidin-4-yl)ethyl]-3H-purin-8-yl}thio)-3-oxoindane-5-carbonitrile]

Same assay, conditions: BODIPY-GM 10 nM, Hsp90 30 nM, overnight at room temperature; read-out: GM displacement from purified Hsp90 measured by FP IC 50

IC50 | Compound
5000 nM | CN1CCOc2cc(Sc3nc4c(N)ncnc4n3CCC3CCN(C=O)CC3)ccc21 [Example Compound 187, 4-(2-{6-Amino-8-[(4-methyl-3,4-dihydro-2H-1,4-benzoxazin-7-yl)thio]-9H-purin-9-yl}ethyl)piperidine-1-carbaldehyde]
205 nM | Nc1ncnc2c1nc(Sc1cc3c(cc1Cl)OCO3)n2CCC1CCN(C=O)CC1 [Example Compound 188, 4-(2-{6-Amino-8-[(6-chloro-1,3-benzodioxol-5-yl)thio]-9H-purin-9-yl}ethyl)piperidine-1-carbaldehyde]
> 5000 nM | Nc1ncnc2c1nc(Sc1cc3occc3cc1Br)n2CCC1CCC(F)(F)CC1 [Example Compound 189, 8-[(5-Bromo-1-benzofuran-6-yl)thio]-9-[2-(4,4-difluorocyclohexyl)ethyl]-9H-purin-6-amine]
650 nM | Nc1ncnc2c1nc(Sc1cc3c(cc1Br)OCO3)n2CCC1CCC(F)(F)CC1 [Example Compound 190, 8-[(6-Bromo-1,3-benzodioxol-5-yl)thio]-9-[2-(4,4-difluorocyclohexyl)ethyl]-9H-purin-6-amine]
2500 nM | CC(C)(C)OC(=O)N1CCC(CCn2c(Sc3cc4occc4cc3Br)nc3c(N)ncnc32)CC1 [Example Compound 191, tert-Butyl 4-(2-{6-amino-8-[(5-bromo-1-benzofuran-6-yl)thio]-9H-purin-9-yl}ethyl)piperidine-1-carboxylate]
> 5000 nM | CC(C)(C)OC(=O)N1CCC(CCn2c(Sc3cc4c(cc3C(F)(F)F)OCC4)nc3c(N)ncnc32)CC1 [Example Compound 192, tert-Butyl 4-[2-(6-amino-8-{[6-(trifluoromethyl)-2,3-dihydro-1-benzofuran-5-yl]thio}-9H-purin-9-yl)ethyl]piperidine-1-carboxylate]
4300 nM | CN(C)C(=O)c1cc2c(cc1Sc1nc3c(N)ncnc3n1CCC1CCN(C=O)CC1)OCO2 [Example Compound 193, 6-({6-amino-9-[2-(1-formylpiperidin-4-yl)ethyl]-9H-purin-8-yl}thio)-N,N-dimethyl-1,3-benzodioxole-5-carboxamide]
150 nM | CC(=O)OCC(=O)N1CCC(CCn2c(Sc3cc4occc4cc3Br)nc3c(N)ncnc32)CC1 [Example Compound 194, 2-[4-(2-{6-Amino-8-[(5-bromo-1-benzofuran-6-yl)thio]-9H-purin-9-yl}ethyl)piperidin-1-yl]-2-oxoethyl acetate]
45 nM | Nc1ncnc2c1nc(Sc1cc3occc3cc1Br)n2CCC1CCN(C(=O)CO)CC1 [Example Compound 195, 2-[4-(2-{6-Amino-8-[(5-bromo-1-benzofuran-6-yl)thio]-9H-purin-9-yl}ethyl)piperidin-1-yl]-2-oxoethanol]
150 nM | Nc1ncnc2c1nc(Sc1cc3occc3cc1Br)n2CCC1CCNCC1 [Example Compound 197, 8-[(5-Bromo-1-benzofuran-6-yl)thio]-9-(2-piperidin-4-ylethyl)-9H-purin-6-amine]
110 nM | CC(=O)O[C@@H](C)C(=O)N1CCC(CCn2c(Sc3cc4occc4cc3Br)nc3c(N)ncnc32)CC1 [Example Compound 198, (1S)-2-[4-(2-{6-Amino-8-[(5-bromo-1-benzofuran-6-yl)thio]-9H-purin-9-yl}ethyl)piperidin-1-yl]-1-methyl-2-oxoethyl acetate]
190 nM | C[C@H](O)C(=O)N1CCC(CCn2c(Sc3cc4occc4cc3Br)nc3c(N)ncnc32)CC1 [Example Compound 199, (2S)-1-[4-(2-{6-Amino-8-[(5-bromo-1-benzofuran-6-yl)thio]-9H-purin-9-yl}ethyl)piperidin-1-yl]-1-oxopropan-2-ol]
185 nM | C[C@@H](OC(=O)C(C)(C)C)C(=O)N1CCC(CCn2c(Sc3cc4occc4cc3Br)nc3c(N)ncnc32)CC1 [Example Compound 200, (1R)-2-[4-(2-{6-Amino-8-[(5-bromo-1-benzofuran-6-yl)thio]-9H-purin-9-yl}ethyl)piperidin-1-yl]-1-methyl-2-oxoethyl pivalate]
200 nM | C[C@@H](O)C(=O)N1CCC(CCn2c(Sc3cc4occc4cc3Br)nc3c(N)ncnc32)CC1 [Example Compound 201, (2R)-1-[4-(2-{6-Amino-8-[(5-bromo-1-benzofuran-6-yl)thio]-9H-purin-9-yl}ethyl)piperidin-1-yl]-1-oxopropan-2-ol]
395 nM | C[C@H](O)C(=O)N1CCC(CCn2c(Sc3cc4c(cc3Cl)OCO4)nc3c(N)ncnc32)CC1 [Example Compound 203, (2S)-1-[4-(2-{6-Amino-8-[(6-chloro-1,3-benzodioxol-5-yl)thio]-9H-purin-9-yl}ethyl)piperidin-1-yl]-1-oxopropan-2-ol]
400 nM | C[C@@H](O)C(=O)N1CCC(CCn2c(Sc3cc4c(cc3Cl)OCO4)nc3c(N)ncnc32)CC1 [Example Compound 204, (2R)-1-[4-(2-{6-Amino-8-[(6-chloro-1,3-benzodioxol-5-yl)thio]-9H-purin-9-yl}ethyl)piperidin-1-yl]-1-oxopropan-2-ol]
497 nM | Nc1ncnc2c1nc(Sc1cc3c(cc1Cl)OCO3)n2CCC1CCN(C(=O)CO)CC1 [Example Compound 205, 2-[4-(2-{6-Amino-8-[(6-chloro-1,3-benzodioxol-5-yl)thio]-9H-purin-9-yl}ethyl)piperidin-1-yl]-2-oxoethanol]
> 5000 nM | C[C@H](O)C(=O)N1CCCC[C@@H]1CCn1c(Sc2cc3c(cc2Br)OCO3)nc2c(N)ncnc21 [Example Compound 206, (2S)-1-[(2R)-2-(2-{6-Amino-8-[(6-bromo-1,3-benzodioxol-5-yl)thio]-9H-purin-9-yl}ethyl)piperidin-1-yl]-1-oxopropan-2-ol]
> 5000 nM | C[C@H](O)C(=O)N1CCCC[C@H]1CCn1c(Sc2cc3c(cc2Br)OCO3)nc2c(N)ncnc21 [Example Compound 207, (2S)-1-[(2S)-2-(2-{6-Amino-8-[(6-bromo-1,3-benzodioxol-5-yl)thio]-9H-purin-9-yl}ethyl)piperidin-1-yl]-1-oxopropan-2-ol]
> 5000 nM | COc1cc(Br)c(Sc2nc3c(N)ncnc3n2CCC2CCN(C(=O)[C@H](C)O)CC2)cc1OC [Example Compound 208, (2S)-1-[4-(2-{6-Amino-8-[(2-bromo-4,5-dimethoxyphenyl)thio]-9H-purin-9-yl}ethyl)piperidin-1-yl]-1-oxopropan-2-ol]
2100 nM | C[C@H](O)C(=O)N1CCC(CCn2c(Sc3cc(O)c(O)cc3Br)nc3c(N)ncnc32)CC1 [Example Compound 209, 4-{[6-Amino-9-(2-{1-[(2S)-2-hydroxypropanoyl]piperidin-4-yl}ethyl)-9H-purin-8-yl]thio}-5-bromobenzene-1,2-diol]
950 nM | Nc1ncnc2c1nc(Sc1cc3c(cc1Br)OCO3)n2C1CCNCC1 [Example Compound 211, 8-[(6-Bromo-1,3-benzodioxol-5-yl)thio]-9-piperidin-4-yl-9H-purin-6-amine]
350 nM | C[C@H](O)C(=O)N1CCC(n2c(Sc3cc4c(cc3Br)OCO4)nc3c(N)ncnc32)CC1 [Example Compound 212, (2S)-1-(4-{6-amino-8-[(6-bromo-1,3-benzodioxol-5-yl)thio]-9H-purin-9-yl}piperidin-1-yl)-1-oxopropan-2-ol]
580 nM | Nc1ncnc2c1nc(Sc1cc3c(cc1Br)OCO3)n2C1CCN(C=O)CC1 [Example Compound 213, 4-{6-Amino-8-[(6-bromo-1,3-benzodioxol-5-yl)thio]-9H-purin-9-yl}piperidine-1-carbaldehyde]
230 nM | N#Cc1cc2c(cc1Sc1nc3c(N)ncnc3n1CCC1CCN(C=O)CC1)CCC2=O [compound 1, 6-({6-Amino-9-[2-(1-formylpiperidin-4-yl)ethyl]-9H-purin-8-yl}thio)-3-oxoindane-5-carbonitrile]
80 nM | COCCOCC(=O)N1CCC(CCn2c(Sc3cc4c(cc3Br)OCCO4)nc3c(N)ncnc32)CC1 [compound 3, 8-[(7-Bromo-2,3-dihydro-1,4-benzodioxin-6-yl)thio]-9-(2-{1-[(2-methoxyethoxy)acetyl]piperidin-4-yl}ethyl)-9H-purin-6-amine]
80 nM | CO[C@@H](C)C(=O)N1CCC(CCn2c(Sc3cc4c(cc3Br)OCCO4)nc3c(N)ncnc32)CC1 [compound 4, 8-[(7-Bromo-2,3-dihydro-1,4-benzodioxin-6-yl)thio]-9-(2-{1-[(2S)-2-methoxypropanoyl]piperidin-4-yl}ethyl)-9H-purin-6-amine]
63 nM | COCCC(=O)N1CCC(CCn2c(Sc3cc4c(cc3Br)OCCO4)nc3c(N)ncnc32)CC1 [compound 5, 8-[(7-Bromo-2,3-dihydro-1,4-benzodioxin-6-yl)thio]-9-{2-[1-(3-methoxypropanoyl)piperidin-4-yl]ethyl}-9H-purin-6-amine]
